Our source for the IC50 values is patent US12679827B2, “Pyrimidine compounds and their pharmaceutical uses” (National Health Research Institutes, priority 2020, dated 2026).

Test [1] deals with T1, human Aurora A (amino acids 123-401) (Homo sapiens, UniProt O14965).
T1 construct: human Aurora A (amino acids 123-401) was expressed in Sf9 insect cells; GST; made in house; host or cells: Sf9 insect cells
T1 sequence (O14965 123-401): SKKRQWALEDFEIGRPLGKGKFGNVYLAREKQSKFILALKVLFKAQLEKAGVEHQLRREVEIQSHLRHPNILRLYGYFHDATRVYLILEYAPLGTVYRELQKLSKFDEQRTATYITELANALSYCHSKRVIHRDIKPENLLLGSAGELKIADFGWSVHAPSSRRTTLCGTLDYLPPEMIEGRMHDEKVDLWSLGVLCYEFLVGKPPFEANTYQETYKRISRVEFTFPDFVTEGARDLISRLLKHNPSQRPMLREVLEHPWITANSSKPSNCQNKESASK
Kind of test: Kinase-Glo Luminescent Kinase assay, in vitro inhibition of Aurora A kinase activity. In kind it is biochemical. The settings on record: recombinant GST-tagged Aurora A, 5.0 μM ATP, 37° C., 120 minutes. As to the method:
Recombinant glutathione S-transferase (GST)-tagged N-terminal truncated human Aurora A (amino acids 123-401) was expressed in Sf9 insect cells and then purified by glutathione affinity chromatography to afford recombinant Aurora A. Recombinant Aurora A (150 ng) was reacted with each test compound (100 nM) in 50 μL of 50 mM Tris-HCl pH 7.4, 10 mM NaCl, 10 mM MgCl2, 0.01% bovine serum albumin, 5.0 μM ATP, 1 mM dithiothreitol, 15 μM tetra(-LRRASLG) peptide at 37° C. for 120 minutes. Then, to the reaction was added 50 μL of Kinase-Glo Plus Reagent. The resulting mixture was incubated at 25° C. for 20 minutes. A 70 μL aliquot of the mixture was transferred to a black microliter plate. Luminescence was measured using a Wallac Vector 1420 multilabel counter (PerkinElmer, USA).

Test [2] concerns NCI-H446. Put plainly: Small-cell-lung cancer cell proliferation inhibition assay (PrestoBlue), NCI-H446. Conditions: Homo sapiens, cMYC amplified SCLC cells, 72 hours. In kind it is cell-based. As to the method:
(§1) Small cell lung cancer cells NCI-H82 (ATCC HTB-175, cMYC amplified), NCI-H446 (ATCC® HTB-171, cMYC amplified), and NCI-H69 (ATCC® HTB-119, MYCN amplified) were seeded at the density of 5000-10000 cells per well in 96-well plates. After 24 hours, the cancer cells were treated with each compound at various concentrations (0-10 μM) and then incubated for another 72 hours. IC50 values were computed based on duplicated 8-point titration.

For test [3], the system named is NCI-H82. Put plainly: Small-cell-lung cancer cell proliferation inhibition assay (PrestoBlue), NCI-H82. In kind it is cell-based. Conditions: Homo sapiens, cMYC amplified SCLC cells, 72 hours. The protocol: as §1

Broadly, the IC50 is the concentration at which inhibition is half-maximal.

Consider `CCN1CCN(c2cc(Nc3cc(C)[nH]n3)nc(N[C@H]3CCN(C(=O)c4cc(Cl)ccc4F)C3)n2)CC1` [Compound 37], for which the IC50 in test [1] was under 100 nM; in test [2], under 1000 nM; in test [3] it was under 1000 nM.

In the case of `CCN1CCN(c2cc(Nc3cc(C)[nH]n3)nc(N[C@H]3CCN(C(=O)c4cccc(Cl)c4F)C3)n2)CC1` [Compound 38], the IC50 is under 100 nM in test [1], under 1000 nM in test [2] and under 1000 nM in test [3].

Consider `CCN1CCN(c2cc(Nc3cc(C)[nH]n3)nc(N[C@H]3CCN(C(=O)c4ccc(Cl)c(F)c4)C3)n2)CC1` [Compound 39], for which the IC50 in test [1] was under 100 nM; in test [2], under 1000 nM; in test [3], under 1000 nM.

With `CCN1CCN(c2cc(Nc3cc(C)[nH]n3)nc(N[C@H]3CCN(C(=O)c4ccc(Cl)c(F)c4F)C3)n2)CC1` [Compound 40], the 50% inhibitory concentration (IC50) in test [1] is under 100 nM; in test [2], under 1000 nM; in test [3], under 1000 nM.

Turning to `CCN1CCN(c2cc(Nc3cc(C)[nH]n3)nc(N[C@H]3CCN(C(=O)c4cc(F)c(Cl)cc4F)C3)n2)CC1` [Compound 43], the IC50 in test [1] is under 100 nM; in test [2] it was under 1000 nM; in test [3], under 1000 nM.

Take `CCN1CCN(c2cc(Nc3cc(C)[nH]n3)nc(N[C@H]3CCN(C(=O)c4ccc(F)cc4F)C3)n2)CC1` [Compound 44]: the IC50 was under 100 nM in test [1], under 1000 nM in test [2] and under 1000 nM in test [3].

For the molecule `CCN1CCN(c2cc(Nc3cc(C)[nH]n3)nc(N[C@H]3CCN(C(=O)c4c(F)cc(Cl)cc4F)C3)n2)CC1` [Compound 47], the IC50 in test [1] was under 100 nM; in test [2] it was under 1000 nM; in test [3], under 1000 nM.

Regarding `CCN1CCN(c2cc(Nc3cc(C)[nH]n3)nc(N[C@H]3CCN(C(=O)c4cccc(C(F)(F)F)c4F)C3)n2)CC1` [Compound 48], the half-maximal inhibitory concentration (IC50) in test [1] is under 100 nM; in test [2], under 1000 nM; in test [3], under 1000 nM.

Regarding `CCN1CCN(c2cc(Nc3cc(C)[nH]n3)nc(N[C@H]3CCN(C(=O)c4ccc(Cl)c(C(F)(F)F)c4)C3)n2)CC1` [Compound 49], the figures for the 50% inhibitory concentration (IC50) in test [1], in test [2] and in test [3] were under 100 nM, under 1000 nM and under 1000 nM, respectively.

Consider `CCN1CCN(c2cc(Nc3cc(C)[nH]n3)nc(N[C@H]3CCN(C(=O)c4nc(Cl)ccc4F)C3)n2)CC1` [Compound 50], for which the figures for the half-inhibitory concentration (IC50) in test [1], in test [2] and in test [3] were under 100 nM, under 1000 nM and under 1000 nM, respectively.

`CCN1CCN(c2cc(Nc3cc(C)[nH]n3)nc(N[C@H]3CCN(C(=O)c4ccc(Cl)nc4Cl)C3)n2)CC1` [Compound 54]: the IC50 in test [1] is under 100 nM; in test [2], under 1000 nM; in test [3], under 1000 nM.

In the case of `CCN1CCN(c2cc(Nc3cc(C)[nH]n3)nc(N[C@H]3CCN(S(=O)(=O)c4ccc(Cl)cc4C)C3)n2)CC1` [Compound 62], the IC50 in test [1] was under 100 nM; in test [2], under 1000 nM; in test [3] it was under 1000 nM.

`CCN1CCN(c2cc(Nc3cc(C)[nH]n3)nc(N[C@H]3CCN(S(=O)(=O)c4ccc(Cl)cc4Cl)C3)n2)CC1` [Compound 63]: the figures for the IC50 in test [1], in test [2] and in test [3] were under 100 nM, under 1000 nM and under 1000 nM, respectively.

Consider `CCN1CCN(c2cc(Nc3cc(C)[nH]n3)nc(N[C@H]3CCN(S(=O)(=O)c4cccc(Cl)c4F)C3)n2)CC1` [Compound 65], for which the IC50 in test [1] was under 100 nM; in test [2], under 1000 nM; in test [3], under 1000 nM.

As to `CCN1CCN(c2cc(Nc3cc(C)[nH]n3)nc(NC3CCN(Cc4cccc(Cl)c4F)CC3)n2)CC1` [Compound 88], the half-maximal inhibitory concentration (IC50) in test [1] is under 100 nM; in test [2], under 1000 nM; in test [3], under 1000 nM.

With `Cc1cc(Nc2cc(N3CC(N(C)C)C3)nc(NC3CCN(C(=O)c4cccc(Cl)c4F)CC3)n2)n[nH]1` [Compound 89], the 50% inhibitory concentration (IC50) was under 100 nM in test [1], under 1000 nM in test [2] and under 1000 nM in test [3].

Turning to `Cc1cc(Nc2cc(N(C)CCN(C)C)nc(NC3CCN(C(=O)c4cccc(Cl)c4F)CC3)n2)n[nH]1` [Compound 95], the IC50 is under 100 nM in test [1], under 1000 nM in test [2] and under 1000 nM in test [3].
